Laboratory results as given in patent publication US4918012A (Kyowa Hakko Kogyo Co., Ltd., priority 1986, dated 1990).

These compounds were tested on strain CA28-50A (assay: Effect of compound added to growth medium on carnitinamide hydrolase formation (Example 9)). Conditions: compound 0.1% in growth medium; cells reacted with 10% DL-carnitinamide, 26° C., 96 hours.
Type: cell-based, Pseudomonas sp. CA28-50A
Procedure: In a medium consisting of 1% glucose, 0.5% peptone, 0.75% K2 HPO4, 0.25% KH2 PO4, 0.01% MgSO4.7H2 O, 0.001% FeSO4.7H2 O and one of the compounds shown in Table 6 below and the balance water (pH 7.2) was inoculated the strain CA28-50A and shake cultured at 26° C. for 3 days. Cells collected from the culture broth by centrifugation were suspended in a reaction solution containing 10% DL-carnitinamide in the same density as that in the medium for growth culture, and the resulting suspension was allowed to stand at 26° C. for 96 hours for the reaction.

SMILES	Conversion Rate of L-carnitinamide into L-carnitine [%]
Cl.N [NH4 Cl]	2.9

Same assay, conditions: compound 0.1% in growth medium; strain CA28-50A, 26° C., 3 days

SMILES	Growth (optical density at 660, 1.00 cm, 20 times dilution)
Cl.N [NH4 Cl]	0.23

Same assay, conditions: compound 0.5% in growth medium; cells reacted with 10% DL-carnitinamide, 26° C., 96 hours

SMILES	Conversion Rate of L-carnitinamide into L-carnitine [%]
C[N+](C)(C)CCCC(=O)[O-] [γ-Butyrobetaine]	12.3
C[N+](C)(C)CC(O)CC(=O)[O-] (racemic) [DL-Carnitine]	90.0
C[N+](C)(C)CC(O)CC(N)=O (racemic) [DL-Carnitinamide]	88.7

Same assay, conditions: compound 0.5% in growth medium; strain CA28-50A, 26° C., 3 days

SMILES	Growth (optical density at 660, 1.00 cm, 20 times dilution)
C[N+](C)(C)CCCC(=O)[O-] [γ-Butyrobetaine]	0.26
C[N+](C)(C)CC(O)CC(=O)[O-] (racemic) [DL-Carnitine]	0.27
C[N+](C)(C)CC(O)CC(N)=O (racemic) [DL-Carnitinamide]	0.27

What follows are compounds tested on L-carnitinamide hydrolase (assay: Inhibitors of L-carnitinamide hydrolase (metal ions, EDTA, 2-mercaptoethanol)). Conditions: at 10 mM.
Type: biochemical, Pseudomonas sp.
Description: The determination of the activity of carnitinamide hydrolase can be carried out by measuring the amount of carnitine generated by, for example, Pearson's method (D. J. Pearson et al., Method in Enzymology, Vol. 14, 612 (1969)). When there is no inhibitory substances present, the determination of the activity of the enzyme can also be carried out by measuring the amount of ammonia generated by the reaction.

SMILES	Inhibition of the enzyme
O=C(O)CN(CCN(CC(=O)O)CC(=O)O)CC(=O)O [EDTA]	do not show inhibition
[Ag+] [Ag ion]	remarkable inhibition
OCCS [2-mercaptoethanol]	do not show inhibition
[Ni+2] [Ni]	slight inhibition

Same assay, conditions: concentration of 1 mM

SMILES	Inhibition of the enzyme
O=C(O)CN(CCN(CC(=O)O)CC(=O)O)CC(=O)O [EDTA]	do not show inhibition
[Ag+] [Ag ion]	slight inhibition
OCCS [2-mercaptoethanol]	do not show inhibition
[Mn+2] [Mn]	no inhibition
[Zn+2] [Zn]	no inhibition
[Mg+2] [Mg]	no inhibition
[Co+2] [Co]	no inhibition
[Ni+2] [Ni]	no inhibition
